Tested on: MV-4-11 cells
Assay: Gene expression microarray analysis (Affymetrix PrimeView) and GSEA
Type: cell-based, human
Set-up: RFU PODN (11730768_x_at) / Fold change /veh PODN (11730768_x_at) / RFU LINC00158 (11744669_a_at) / Fold change /veh LINC00158 (11744669_a_at) / RFU DUSP10 (11751237_a_at) / Fold change /veh DUSP10 (11751237_a_at) / RFU ID3 (11757404_x_at) / Fold change /veh ID3 (11757404_x_at) / RFU PLEKHG5 (11737974_s_at) / Fold change /veh PLEKHG5 (11737974_s_at) / RFU LRRC4B (11730491_at) / Fold change /veh LRRC4B (11730491_at) / RFU GIMAP4 (11747438_a_at) / Fold change /veh GIMAP4 (11747438_a_at) / RFU KRT8 (11758183_x_at) / Fold change /veh KRT8 (11758183_x_at) / RFU CNN1 (11734310_a_at) / Fold change /veh CNN1 (11734310_a_at) / RFU VPS37D (11726825_at) / Fold change /veh VPS37D (11726825_at) / RFU C10orf10 (11716522_x_at) / Fold change /veh C10orf10 (11716522_x_at) / RFU KIR2DL2 /// KIR2DL4 /// KIR2DL5A /// KIR2DL5B /// KIR2DS1 /// KIR2DS2 /// KIR2DS3 /// KIR2DS4 /// KIR3DL3 /// KIR3DL3 /// KIR3DS1 (11738374_at) / Fold change /veh KIR2DL2 /// KIR2DL4 /// KIR2DL5A /// KIR2DL5B /// KIR2DS1 /// KIR2DS2 /// KIR2DS3 /// KIR2DS4 /// KIR3DL3 /// KIR3DL3 /// KIR3DS1 (11738374_at) / RFU C1QL1 (11718748_at) / Fold change /veh C1QL1 (11718748_at) / RFU TMPRSS4 (11747572_a_at) / Fold change /veh TMPRSS4 (11747572_a_at) / RFU HAMP (11756126_x_at) / Fold change /veh HAMP (11756126_x_at) / RFU RNFT2 (11725882_a_at) / Fold change /veh RNFT2 (11725882_a_at) / RFU NR4A2 (11747474_a_at) / Fold change /veh NR4A2 (11747474_a_at) / RFU ABCC12 (11746883_a_at) / Fold change /veh ABCC12 (11746883_a_at) / RFU TMEM136 (11760407_x_at) / Fold change /veh TMEM136 (11760407_x_at) / RFU CLDN22 /// WWC2 (11732394_at) / Fold change /veh CLDN22 /// WWC2 (11732394_at) / RFU HLA-DPB1 (11760878_x_at) / Fold change /veh HLA-DPB1 (11760878_x_at) / RFU SPINT1 (11716480_a_at) / Fold change /veh SPINT1 (11716480_a_at) / RFU GAP43 (11754022_s_at) / Fold change /veh GAP43 (11754022_s_at) / RFU A4GNT (11735810_at) / Fold change /veh A4GNT (11735810_at) / RFU PRB3 (11715151_x_at) / Fold change /veh PRB3 (11715151_x_at) / RFU TUBB4B (11761932_at) / Fold change /veh TUBB4B (11761932_at) / RFU CAPN14 (11732068_a_at) / Fold change /veh CAPN14 (11732068_a_at) / RFU TMCC2 (11721928_a_at) / Fold change /veh TMCC2 (11721928_a_at) / RFU IRGQ (11745062_a_at) / Fold change /veh IRGQ (11745062_a_at) / RFU FAM174B (11720279_a_at) / Fold change /veh FAM174B (11720279_a_at) / RFU TMPRSS4 (11748680_a_at) / Fold change /veh TMPRSS4 (11748680_a_at) / RFU FAM212B (11763350_a_at) / Fold change /veh FAM212B (11763350_a_at) / RFU PLEKHG5 (11743358_a_at) / Fold change /veh PLEKHG5 (11743358_a_at) / RFU ZSCAN30 (11745921_a_at) / Fold change /veh ZSCAN30 (11745921_a_at) / RFU CMKLR1 (11741424_a_at) / Fold change /veh CMKLR1 (11741424_a_at) / RFU LOC101060620 /// MAPK8IP1 (11723275_at) / Fold change /veh LOC101060620 /// MAPK8IP1 (11723275_at) / RFU SPTSSB (11747773_x_at) / Fold change /veh SPTSSB (11747773_x_at) / RFU PRSS12 (11739890_at) / Fold change /veh PRSS12 (11739890_at) / RFU BIN1 (11741810_x_at) / Fold change /veh BIN1 (11741810_x_at) / RFU WNT11 (11732464_a_at) / Fold change /veh WNT11 (11732464_a_at) / RFU C10orf10 (11716521_a_at) / Fold change /veh C10orf10 (11716521_a_at) / RFU C5orf56 (11738089_at) / Fold change /veh C5orf56 (11738089_at) / RFU CYB561 (11721691_x_at) / Fold change /veh CYB561 (11721691_x_at) / RFU ANKRD19P (11752326_a_at) / Fold change /veh ANKRD19P (11752326_a_at) / RFU OR2T12 /// OR2T33 /// OR2T8 (11738714_s_at) / Fold change /veh OR2T12 /// OR2T33 /// OR2T8 (11738714_s_at) / RFU VCAN (11748164_a_at) / Fold change /veh VCAN (11748164_a_at) / RFU JSRP1 (11732532_at) / Fold change /veh JSRP1 (11732532_at) / RFU KRTAP10-11 (11738290_x_at) / Fold change /veh KRTAP10-11 (11738290_x_at) / RFU MYO3A (11730013_a_at) / Fold change /veh MYO3A (11730013_a_at) / RFU EBF3 (11725865_a_at) / Fold change /veh EBF3 (11725865_a_at) / RFU CAMK2N1 (11719241_x_at) / Fold change /veh CAMK2N1 (11719241_x_at) / RFU C5orf56 (11738088_a_at) / Fold change /veh C5orf56 (11738088_a_at) / RFU OLFML3 (11715873_a_at) / Fold change /veh OLFML3 (11715873_a_at) / RFU LOC100653217 /// NTM (11731650_a_at) / Fold change /veh LOC100653217 /// NTM (11731650_a_at) / RFU MAPK11 (11762145_a_at) / Fold change /veh MAPK11 (11762145_a_at) / RFU FIZ1 (11724087_x_at) / Fold change /veh FIZ1 (11724087_x_at) / RFU OASL (11726364_x_at) / Fold change /veh OASL (11726364_x_at) / RFU SOX15 (11748057_x_at) / Fold change /veh SOX15 (11748057_x_at) / RFU CD79A (11719716_a_at) / Fold change /veh CD79A (11719716_a_at) / RFU HIST1H1D (11736915_at) / Fold change /veh HIST1H1D (11736915_at) / RFU CASKIN2 (11723855_a_at) / Fold change /veh CASKIN2 (11723855_a_at) / RFU LOC730098 (11760151_x_at) / Fold change /veh LOC730098 (11760151_x_at) / RFU OR4N2 (11742367_at) / Fold change /veh OR4N2 (11742367_at) / RFU PRRT2 (11749266_a_at) / Fold change /veh PRRT2 (11749266_a_at) / RFU SNX32 (11753110_a_at) / Fold change /veh SNX32 (11753110_a_at) / RFU CDHR5 (11726645_a_at) / Fold change /veh CDHR5 (11726645_a_at) / RFU RCAN1 (11760418_a_at) / Fold change /veh RCAN1 (11760418_a_at) / RFU FAM167A (11723789_a_at) / Fold change /veh FAM167A (11723789_a_at) / RFU FAM26E (11764081_at) / Fold change /veh FAM26E (11764081_at) / RFU ISYNA1 (11749810_s_at) / Fold change /veh ISYNA1 (11749810_s_at) / RFU ACY1 (11761880_at) / Fold change /veh ACY1 (11761880_at) / RFU 11764098_at / Fold change /veh 11764098_at / RFU SAMD14 (11745864_x_at) / Fold change /veh SAMD14 (11745864_x_at) / RFU NPB (11741838_a_at) / Fold change /veh NPB (11741838_a_at) / RFU TMPRSS6 (11731388_a_at) / Fold change /veh TMPRSS6 (11731388_a_at) / RFU KRTAP10-2 (11738614_at) / Fold change /veh KRTAP10-2 (11738614_at) / RFU ARHGAP8 /// PRR5-ARHGAP8 (11727945_x_at) / Fold change /veh ARHGAP8 /// PRR5-ARHGAP8 (11727945_x_at) / RFU KRTAP5-7 /// NADSYN1 (11734609_at) / Fold change /veh KRTAP5-7 /// NADSYN1 (11734609_at) / RFU RASL12 (11751679_a_at) / Fold change /veh RASL12 (11751679_a_at) / RFU CDKN2B (11736163_a_at) / Fold change /veh CDKN2B (11736163_a_at) / RFU PRF1 (11729649_at) / Fold change /veh PRF1 (11729649_at) / RFU, ZNF638 /// ZNF638-IT1 / Fold change vs veh, ZNF638 /// ZNF638-IT1 / RFU, PANK3 / Fold change vs veh, PANK3 / RFU, SH3YL1 / Fold change vs veh, SH3YL1 / RFU, ZEB2 / Fold change vs veh, ZEB2 / RFU, NRIP1 / Fold change vs veh, NRIP1 / RFU, PTTG1IP / Fold change vs veh, PTTG1IP / RFU, CAPN2 / Fold change vs veh, CAPN2 / RFU, MED14 / Fold change vs veh, MED14 / RFU, SNORA58 / Fold change vs veh, SNORA58 / RFU, C1orf63 / Fold change vs veh, C1orf63 / RFU, LRRFIP1 / Fold change vs veh, LRRFIP1 / RFU, NDUFAF7 / Fold change vs veh, NDUFAF7 / RFU, SLC12A2 / Fold change vs veh, SLC12A2 / RFU, IBTK / Fold change vs veh, IBTK / RFU, ESF1 / Fold change vs veh, ESF1 / Fold change vs veh, TMEM50B / RFU, TAOK1 / Fold change vs veh, TAOK1 / RFU, ACBD3 / Fold change vs veh, ACBD3 / RFU, TMA16 / Fold change vs veh, TMA16 / RFU, RWDD3 / Fold change vs veh, RWDD3 / RFU, BCAT1 / Fold change vs veh, BCAT1 / RFU, EDEM3 / Fold change vs veh, EDEM3 / RFU, TMEM33 / Fold change vs veh, TMEM33 / RFU, WDR75 / Fold change vs veh, WDR75 / RFU, AHCTF1 / Fold change vs veh, AHCTF1 / RFU, TFRC / Fold change vs veh, TFRC / RFU, ZDHHC17 / Fold change vs veh, ZDHHC17 / RFU, NOM1 / Fold change vs veh, NOM1 / RFU, ARL8B / Fold change vs veh, ARL8B / RFU, ZBTB11 / Fold change vs veh, ZBTB11 / RFU, TAMM41 / Fold change vs veh, TAMM41 / RFU, KIAA1704 /// LOC100996395 / Fold change vs veh, KIAA1704 /// LOC100996395 / RFU, ING1 / Fold change vs veh, ING1 / RFU, TRMT61B / Fold change vs veh, TRMT61B / RFU, FUBP3 / Fold change vs veh, FUBP3 / RFU, TP53 / Fold change vs veh, TP53 / RFU, TNKS2 / Fold change vs veh, TNKS2 / RFU, ZFP14 / Fold change vs veh, ZFP14 / RFU, ACTR2 / Fold change vs veh, ACTR2 / RFU, PPP3R1 / Fold change vs veh, PPP3R1 / RFU, PIK3R1 / Fold change vs veh, PIK3R1 / RFU, HNRNPA1 / Fold change vs veh, HNRNPA1 / RFU, RNF170 / Fold change vs veh, RNF170 / RFU, ZNF28 / Fold change vs veh, ZNF28 / RFU, RNGTT / Fold change vs veh, RNGTT / RFU, OGT / Fold change vs veh, OGT / RFU, BRD1 / Fold change vs veh, BRD1 / RFU, MARS / Fold change vs veh, MARS / RFU, ZNF655 / Fold change vs veh, ZNF655 / RFU, FAHD1 / Fold change vs veh, FAHD1 / RFU, BDP1 / Fold change vs veh, BDP1 / RFU, LRRCC1 / Fold change vs veh, LRRCC1 / RFU, ARID1A / Fold change vs veh, ARID1A / RFU, ZNF146 / Fold change vs veh, ZNF146 / RFU, ZNF330 / Fold change vs veh, ZNF330 / RFU, GPN3 / Fold change vs veh, GPN3 / RFU, C9orf123 / Fold change vs veh, C9orf123 / RFU, N4BP2L2 / Fold change vs veh, N4BP2L2 / RFU, ARFIP1 / Fold change vs veh, ARFIP1 / RFU, FAM179B / Fold change vs veh, FAM179B / RFU, BCL10 / Fold change vs veh, BCL10 / RFU, UHRF1BP1L / Fold change vs veh, UHRF1BP1L / RFU, BET1 / Fold change vs veh, BET1 / RFU, CNOT2 / Fold change vs veh, CNOT2 / RFU, ZNF268 / Fold change vs veh, ZNF268 / Fold change vs veh, ZNF507 / RFU, DGCR2 / Fold change vs veh, DGCR2 / RFU, WDSUB1 / Fold change vs veh, WDSUB1 / Fold change vs veh, HSP90B1 /// MIR3652 / RFU, ADSS / Fold change vs veh, ADSS / RFU, GK / Fold change vs veh, GK / RFU, ZNF148 / Fold change vs veh, ZNF148 / RFU, TAF9 / Fold change vs veh, TAF9 / RFU, SLC1A5 / Fold change vs veh, SLC1A5 / RFU, SLMO2 / Fold change vs veh, SLMO2 / RFU, ABCC4 / Fold change vs veh, ABCC4 / RFU, LOC101060439 /// RAP1B / Fold change vs veh, LOC101060439 /// RAP1B / RFU, RFX7 / Fold change vs veh, RFX7 / RFU, GTPBP10 / Fold change vs veh, GTPBP10 / RFU, CNEP1R1 / Fold change vs veh, CNEP1R1 / RFU, BIVM-ERCC5 /// ERCC5 / Fold change vs veh, BIVM-ERCC5 /// ERCC5 / RFU, ILF3 / Fold change vs veh, ILF3 / RFU 11762660_at / Fold change /veh 11762660_at / RFU VCAN (11757783_s_at) / Fold change /veh VCAN (11757783_s_at) / RFU DDX43 (11728927_at) / Fold change /veh DDX43 (11728927_at) / RFU KRT8 (11758188_x_at) / Fold change /veh KRT8 (11758188_x_at) / RFU NKD1 (11759106_at) / Fold change /veh NKD1 (11759106_at) / RFU SRD5A1 (11742802_a_at) / Fold change /veh SRD5A1 (11742802_a_at) / RFU TPSAB1 /// TPSB2 (11721975_s_at) / Fold change /veh TPSAB1 /// TPSB2 (11721975_s_at) / RFU GSTM3 (11746129_a_at) / Fold change /veh GSTM3 (11746129_a_at) / RFU IL23R (11737362_x_at) / Fold change /veh IL23R (11737362_x_at) / RFU TMEM51 (11727254_a_at) / Fold change /veh TMEM51 (11727254_a_at) / RFU PIWIL2 (11732686_x_at) / Fold change /veh PIWIL2 (11732686_x_at) / RFU ORM1 (11744905_x_at) / Fold change /veh ORM1 (11744905_x_at) / RFU CCDC152 (11743942_at) / Fold change /veh CCDC152 (11743942_at) / RFU ECM1 (11717891_a_at) / Fold change /veh ECM1 (11717891_a_at) / RFU IL23R (11748794_a_at) / Fold change /veh IL23R (11748794_a_at) / RFU TNFAIP8L3 (11732012_x_at) / Fold change /veh TNFAIP8L3 (11732012_x_at) / RFU MBOAT4 (11741988_at) / Fold change /veh MBOAT4 (11741988_at) / RFU 11764193_at / Fold change /veh 11764193_at / RFU TMEM53 (11763286_at) / Fold change /veh TMEM53 (11763286_at) / RFU MAGEB2 (11727129_at) / Fold change /veh MAGEB2 (11727129_at) / RFU TMEM200A (11744735_a_at) / Fold change /veh TMEM200A (11744735_a_at) / RFU CCDC152 (11751479_a_at) / Fold change /veh CCDC152 (11751479_a_at) / RFU FAM211A (11726209_a_at) / Fold change /veh FAM211A (11726209_a_at) / RFU RGS16 (11746705_a_at) / Fold change /veh RGS16 (11746705_a_at) / RFU VCAN (11755009_s_at) / Fold change /veh VCAN (11755009_s_at) / RFU RHOB (11743442_s_at) / Fold change /veh RHOB (11743442_s_at) / RFU RGS16 (11720943_a_at) / Fold change /veh RGS16 (11720943_a_at) / RFU RGS16 (11720944_at) / Fold change /veh RGS16 (11720944_at) / RFU, VPS4B / Fold change vs veh, VPS4B / RFU, CREB1 / Fold change vs veh, CREB1 / RFU, DNAJC13 / Fold change vs veh, DNAJC13 / RFU, GNAQ / Fold change vs veh, GNAQ / RFU, CDK5R1 / Fold change vs veh, CDK5R1 / RFU, ZRANB3 / Fold change vs veh, ZRANB3 / RFU, CUL4A / Fold change vs veh, CUL4A / RFU, CCNY / Fold change vs veh, CCNY / RFU, UFL1 / Fold change vs veh, UFL1 / RFU, COG3 / Fold change vs veh, COG3 / RFU, DIAPH2 / Fold change vs veh, DIAPH2 / RFU, SKA2 / Fold change vs veh, SKA2 / RFU, AFF3 / Fold change vs veh, AFF3 / RFU, LMF1 / Fold change vs veh, LMF1 / RFU, IPO11 / Fold change vs veh, IPO11 / RFU, DFFB / Fold change vs veh, DFFB / RFU, FOXP1 / Fold change vs veh, FOXP1 / RFU, CARD8 / Fold change vs veh, CARD8 / RFU, STRN3 / Fold change vs veh, STRN3 / RFU, ADK / Fold change vs veh, ADK / RFU, RASSF2 / Fold change vs veh, RASSF2 / RFU, WIPF1 / Fold change vs veh, WIPF1 / RFU, LARP1B / Fold change vs veh, LARP1B / RFU, RASA1 / Fold change vs veh, RASA1 / RFU, RB1 / Fold change vs veh, RB1 / RFU, PPFIA1 / Fold change vs veh, PPFIA1 / RFU, MAT2A / Fold change vs veh, MAT2A / RFU, CCT5 / Fold change vs veh, CCT5 / RFU, WDR92 / Fold change vs veh, WDR92 / RFU, CUX1 / Fold change vs veh, CUX1 / RFU, TTC7A / Fold change vs veh, TTC7A / RFU, TMEM135 / Fold change vs veh, TMEM135 / RFU, DEPTOR / Fold change vs veh, DEPTOR / RFU, CPM / Fold change vs veh, CPM / RFU, DNAJB6 / Fold change vs veh, DNAJB6 / RFU, CACNA2D3 / Fold change vs veh, CACNA2D3 / RFU, DTX4 / Fold change vs veh, DTX4 / RFU, TFCP2 / Fold change vs veh, TFCP2 / RFU, GMCL1 /// GMCL1P1 / Fold change vs veh, GMCL1 /// GMCL1P1 / RFU, AEBP2 / Fold change vs veh, AEBP2 / RFU, SNHG1 /// SNORD22 /// SNORD25 /// SNORD26 /// SNORD27 /// SNORD28 /// SNORD29 /// SNORD31 / Fold change vs veh, SNHG1 /// SNORD22 /// SNORD25 /// SNORD26 /// SNORD27 /// SNORD28 /// SNORD29 /// SNORD31 / Fold change (Aza/veh), C12orf56 (ProbeSet 11735607_a_at) / Fold change (ACY-1035/veh), C12orf56 (ProbeSet 11735607_a_at) / Fold change (Aza/veh), FGFR1OP (ProbeSet 11751329_s_at) / Fold change (ACY-1035/veh), FGFR1OP (ProbeSet 11751329_s_at) / Fold change (Aza/veh), VPS36 (ProbeSet 11739960_a_at) / Fold change (ACY-1035/veh), VPS36 (ProbeSet 11739960_a_at) / RFU SYPL1 (11715823_x_at) / Fold change /veh SYPL1 (11715823_x_at) / RFU IGFBP7 (11715501_s_at) / Fold change /veh IGFBP7 (11715501_s_at) / RFU REEP3 (11722064_at) / Fold change /veh REEP3 (11722064_at) / RFU IGLL1 (11728026_x_at) / Fold change /veh IGLL1 (11728026_x_at): dose or concentration left out as unconfirmed
Settings: MV-4-11 cells, 48 hours

## Nc1ncn([C@@H]2O[C@H](CO)[C@@H](O)[C@H]2O)c(=O)n1 [azacitidine]
  Fold change /veh SAMD14 (11745864_x_at): 0.91

Source: publication PMC5218480 (PLoS ONE, 2017)
